From patent publication US10662218B2, “Analogs of celastrol” (ERX Pharmaceuticals, Inc., priority 2015, dated 2020)
Converted amounts (≈) assume the structure as drawn. “And” between values parts separate entries of the source, which are not always exact repeats. Equal entries are not always repeated. Where two headings read alike, the source gives them in different places.

What was measured:
[1] = Compound solubility in PBS (pH 7.4), LC-MS/MS; details: PBS (pH 7.4), pH 7.4, aqueous buffer, kinetic from dmso stock
Description: • Test concentration: 100 μM (1% of DMSO) • Test systems: PBS (pH 7.4) • Incubation condition: shaken (1000 rpm) for 1 h at room temperature • Sample size: Duplicates (n=2) • Bioanalytical method: LC-MS/MS

[2] = test system: C57BL/6 Diet Induced Obese (DIO) mice; assay: Oral (P.O.) administration study in DIO mice: in vivo activity, body weights; parameters: species or system mouse; details: 2 mg/kg; for Individual Body Weight: individual male animals; for Body weight, Mean / change in vivo at 2 mg/kg: male; for change in vivo at 2 mg/kg: Mus musculus, po, read-out: Body weight, %-Diff
Excerpt: The purpose of this study was to assess test articles in the Diet Induced Obese (DIO) mouse.
Male C57BL/6 Diet Induced Obese (DIO) mice were received from Taconic. Animals were acclimated to housing conditions for at least 1 week prior to vehicle acclimation dosing. Animals were acclimated to oral gavage dosing with vehicle once daily for Days 11 through 14 of the predose phase.
At initiation of dosing, animals were 21 to 22 weeks old, and their body weights ranged from 29.8 to 40.1 g.
Dose formulations were administered by oral gavage once daily for 10 days at a dose volume of 2 mL/kg. Doses were based on the most recently recorded scheduled body weight.
Body weights were recorded daily on Days 11 through 14 of the predose phase. Body weights were collected for all animals daily during the dosing phase prior to dosing.
Descriptive statistics (n, mean, standard error of the mean, standard deviation) were completed. Additionally, one-way analysis of variance followed by Dunnett's post-hoc test were performed on body weight (cumulative body weight change), glucose (glucose percent change), and food consumption (cumulative food consumption). Area under the curve (for body weight, cumulative body weight change, daily body weight change, and food consumption) was computed for treatment groups. An appropriate comparison test, such as one-way analysis of variance and Dunnett's, was performed on the group means for the area under the curve computations. Any additional statistical analysis and interpretation of the results were the responsibility of the sponsor.

[3] = test system: C57BL/6 Diet Induced Obese (DIO) mice; assay: Oral (P.O.) administration study in DIO mice: animal fate (mortality) and clinical observations; details: mouse, in vivo, 2 mg/kg
Description: Male C57BL/6 DIO mice were assigned to 12 groups, and doses of 2 mg/kg Celastrol (ERX1000-4), ERX1006, ERX1007, ERX1037, ERX1060, ERX1077, ERX1107, ERX1149, ERX1168, ERX1177, and Pristimerin were administered to Groups 2 through 12, respectively. Animals were dosed via oral gavage once daily for 10 days at a volume of 2 mL/kg. The vehicle control article was 1% methyl cellulose (400 cps) in citric acid and phosphate buffer.
Parameters assessed included mortality, clinical observations, body weights and food consumption and blood glucose evaluations.
All animals were anesthetized via carbon dioxide, sacrificed, and discarded without further evaluation on Day 11.

Compound: CC1=C(O)C(=O)C=C2C1=CC=C1[C@@]2(C)CC[C@@]2(C)[C@@H]3C[C@](C)(N)CC[C@]3(C)CC[C@]12C [ERX1077]
- solubility at 1 h ([1]; Solubility (μM) Mean, Table 6-B, test concentration 100 μM (1% of DMSO), shaken (1000 rpm) 1 h at room temperature, n = 2): 16.7 µM (≈ 7.04 µg/mL)
- solubility at 1 h ([1]; Solubility (μM), Table 6-D): 16.7 µM (≈ 7.04 µg/mL)
- Individual Body Weight ([2]; Phase Day DSNG 1): 31.5 g and 32.8 g and 34.5 g and 38.3 g and 34.9 g
- Individual Body Weight ([2]; Phase Day DSNG 2): 31.2 g and 32.5 g and 34.1 g and 38.4 g and 34.4 g
- Individual Body Weight ([2]; Phase Day PRED 11 (pre-dose baseline)): 32.6 g and 34.8 g and 36.1 g and 40.2 g and 38.0 g
- Individual Body Weight ([2]; Phase Day PRED 12 (pre-dose baseline)): 33.2 g and 34.0 g and 35.8 g and 40.4 g and 37.0 g
- Individual Body Weight ([2]; Phase Day PRED 13 (pre-dose baseline)): 31.6 g and 33.1 g and 35.6 g and 39.7 g and 36.9 g
- Individual Body Weight ([2]; Phase Day PRED 14 (pre-dose baseline)): 32.7 g and 33.6 g and 35.7 g and 40.6 g and 36.6 g
- Body weight, Mean ([2]; DIO mice, phase DSNG, Day 7): 33.3 g
- Body weight, Mean ([2]; DIO mice, phase DSNG, Day 8): 33.7 g
- Body weight, Mean ([2]; DIO mice, phase DSNG, Day 9): 33.5 g
- Body weight, Mean ([2]; DIO mice, phase DSNG, Day 10): 33.8 g
- Body weight, Mean ([2]; DIO mice, phase DSNG, Day 11): 33.9 g
- Body weight, Mean ([2]; Day 1, DSNG phase, N=5): 34.4 g
- Body weight, Mean ([2]; Day 2, DSNG phase, N=5): 34.1 g
- Body weight, Mean ([2]; Day 3, DSNG phase, N=5): 34.0 g
- Body weight, Mean ([2]; Day 4, DSNG phase, N=5): 33.7 g
- Body weight, Mean ([2]; Day 5, DSNG phase, N=5): 33.7 g
- Body weight, Mean ([2]; Day 6, DSNG phase, N=5): 34.0 g
- change in vivo at 2 mg/kg ([2]; 24 h, Day 1, DSNG phase, difference of group mean): 0%
- change in vivo at 2 mg/kg ([2]; 48 h, Day 2, DSNG phase, difference of group mean): -1%
- change in vivo at 2 mg/kg ([2]; 72 h, Day 3, DSNG phase, difference of group mean): 0%
- change in vivo at 2 mg/kg ([2]; 96 h, Day 4, DSNG phase, difference of group mean): 1%
- change in vivo at 2 mg/kg ([2]; 120 h, Day 5, DSNG phase, difference of group mean): 0%
- change in vivo at 2 mg/kg ([2]; 144 h, Day 6, DSNG phase, difference of group mean): 1%
- change in vivo at 2 mg/kg ([2]; 168 h, DIO mice, phase DSNG, Day 7, difference of group mean from vehicle group 1): -1%
- change in vivo at 2 mg/kg ([2]; 192 h, DIO mice, phase DSNG, Day 8, difference of group mean from vehicle group 1): 0%
- change in vivo at 2 mg/kg ([2]; 216 h, DIO mice, phase DSNG, Day 9, difference of group mean from vehicle group 1): 1%
- change in vivo at 2 mg/kg ([2]; 240 h, DIO mice, phase DSNG, Day 10, difference of group mean from vehicle group 1): 1%
- change in vivo at 2 mg/kg ([2]; 264 h, DIO mice, phase DSNG, Day 11, difference of group mean from vehicle group 1): -1%
- Individual Animal Fate: Fate Status [3]: Scheduled Sacrifice
